Data from patent US9188584B2, “Capture agents and related compositions, methods and systems” (CALIFORNIA INSTITUTE OF TECHNOLOGY, priority 2008, dated 2015).
“And” between values parts separate entries of the source, which are not always exact repeats. Identical values can stand only once.

Tests used:
b(h)CAII = experiment: Dot blot selectivity/sensitivity assay in porcine serum; type: binding; settings: 0.1% serum
Experimental: Dot blots are a common method for detecting proteins. […] For a dot blot, the solution containing the protein of interest is simply dotted onto an absorbent membrane material (typically nitrocellulose). The capture agent (typically an antibody) is labeled with biotin molecule, and applied to the same spot. The spot is rinsed, and then horseradish peroxidase (HRP)-labeled streptavidin is added, binding to the biotin that is bound to the protein. Optical methods are typically utilized to detect this binding. For these tests, Biotin-PEG-NovaTag resin (0.48 mmol/g; Novabiochem) was utilized for bulk synthesis of C-terminal biotin-labeled multi-ligands. After resin cleavage, the crude biotinylated multi-ligand was precipitated with ether and then purified to >98% by C18 reversed phase HPLC. For a dot blot assay, the procedure was as follows: b(h)CAII antigens were prepared as 1 mg/mL stocks in PBS (pH 7.4). A dilution series of antigen was applied to a nitrocellulose membrane, typically ranging from 2 μg to 0.5 ng per spot. […] The membrane was then washed with TBS. […] After washing with TBS for 1 h, 1:3000 Streptavidin-HRP (Abcam, Cambridge, Mass.) prepared in 0.5% milk/TBS was added to the membrane and incubated for 1 h. […]

hCAII = hCAII (Homo sapiens, UniProt P00918); experiment: biochemical
Experimental: KD determination by surface plasmon resonance (SPR). […] One flow cell of the biosensor surface (BIACORE CM5) was immobilized with bCAII following standard procedures using 0.25 mg/mL bCAII prepared in 10 mM sodium acetate (pH 5.0) buffer and a 1:1 solution of 0.1 mM NHS and 0.4 mM EDC (Papalia, G. A. et al., 2006). Similarly, a second flow cell was immobilized with hCAII following standard procedures using 0.25 mg/mL hCAII prepared in 10 mM sodium acetate (pH 5.5) buffer (Svedhem, S. et al., 2001). Immobilization levels of ˜4000 RU were achieved using a flow rate of 100 μL/min over 420 s. The remaining two flow cells were left underivatized, to correct for changes in bulk refractive index and to assess nonspecific binding. The running buffer was prepared to contain 10 mM HEPES+150 mM NaCl+0.05% Tween20+3% DMSO, and this buffer was used for all experiments. Prior to the peptide analyte experiment, 8 buffer-alone cycles were completed to establish baseline stabilization. Biligand samples were injected in a concentration series (5 μM to 2 nM) at 100 μL/min flow rate for 120-180 s across the four flow cells. Following background subtraction, the analyte response data was fitted for 1:1 binding affinity using the BiaEvaluation software. […]

bCAII = biological target: T1, bCAII (Bos taurus, UniProt P00921); experiment: KD determination by surface plasmon resonance (SPR), immobilized bCAII; design: species or system bovine; settings: binding affinity to bCAII by SPR, 1:1 binding fit
T1 construct: The bCAII (C2522), from bovine erythrocytes, lyophilized powder; purchased Sigma-Aldrich C2522; host or cells: bovine erythrocytes
From the text: KD determination by surface plasmon resonance (SPR).

T1 sequence (P00921 whole entry): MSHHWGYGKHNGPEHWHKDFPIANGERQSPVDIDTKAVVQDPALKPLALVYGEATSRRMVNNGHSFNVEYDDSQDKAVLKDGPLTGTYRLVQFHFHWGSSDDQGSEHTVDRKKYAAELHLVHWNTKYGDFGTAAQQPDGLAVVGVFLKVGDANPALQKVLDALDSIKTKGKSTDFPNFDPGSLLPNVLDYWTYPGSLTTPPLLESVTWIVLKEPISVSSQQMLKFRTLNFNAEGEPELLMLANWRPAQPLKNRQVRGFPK

Molecule	reduction of dot blot sensitivity relative to triligand (b(h)CAII)	Kd (hCAII)	Kd (bCAII)
(D-Pra)-kwlwGl-Tz1-kfwlkl	> 10 fold	–	–
CC[C@@H](C)[C@@H](NC(=O)[C@@H](CC(C)C)NC(=O)[C@@H](CC(N)=O)NC(=O)C(N)CCCCn1cc(C[C@@H](NC(C)=O)C(=O)N[C@H](CCCCN)C(=O)N[C@H](Cc2c[nH]c3ccccc23)C(=O)N[C@H](CC(C)C)C(=O)N[C@H](Cc2c[nH]c3ccccc23)C(=O)NCC(=O)N[C@H](CC(C)C)C(=O)N[C@H](Cc2cn(CCCCC(NC(C)=O)C(=O)N[C@H](CCCCN)C(=O)N[C@H](Cc3ccccc3)C(=O)N[C@H](Cc3c[nH]c4ccccc34)C(=O)N[C@H](CC(C)C)C(=O)N[C@H](CCCCN)C(=O)N[C@H](CC(C)C)C(=O)O)nn2)C(=O)N2CCCCC2)nn1)C(=O)N[C@@H](C(=O)N[C@H](Cc1ccccc1)C(=O)N[C@H](CCCNC(=N)N)C(N)=O)C(C)C (stereo partly drawn) [rfviln-Tz2-kwlwGl-Tz1-kfwlkl]	–	0.045 µM	0.06 µM and 0.064 µM
